{"source": "PubChem BioAssay AID1845196", "about": "(Molecular Pharmacology Branch, DTP, NCI, 2023);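 further: spheroids exposed to compounds for 7 days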", "test_system": "292921-168-R tumor spheroid viability", "assay": "Anticancer human tumor 292921-168-R patient-derived pancreatic carcinoma cell line growth inhibition", "conditions": "spheroids with HUVEC and MSC; for IC50: curve of first compound; for viability, T/C: stronger effect = lower value", "how_it_was_run": "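Complex spheroids of malignant cells with endothelial cells and mesenchymal stem cells; agents alone or combined, from near clinical Cmax (or 10 microM if unknown) down in half-log steps, 0.25% DMSO final.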"}
{"smiles": "CNCc1ccc(-c2cc(-c3nc(-c4ccc(S(=O)(=O)C(C)C)cc4)cnc3N)on2)cc1", "note": "+ CC[C@@]1(O)C(=O)OCc2c1cc1n(c2=O)Cc2cc3c(CN(C)C)c(O)ccc3nc2-1", "values": [{"measurement": "IC50", "setting": "second compound 0.003 µM", "value": 107, "unit": "nM"}, {"measurement": "IC50", "setting": "second compound 0.00949 µM", "value": 69.2, "unit": "nM"}, {"measurement": "IC50", "setting": "second compound 0.03 µM", "value": "< 9.49", "unit": "nM"}, {"measurement": "IC50", "setting": "second compound 0.0949 µM", "value": "< 9.49", "unit": "nM"}, {"measurement": "IC50", "setting": "second compound 0.3 µM", "value": "< 9.49", "unit": "nM"}, {"measurement": "viability, T/C", "setting": "second compound 0.003 µM, first compound 0.00949 µM", "value": 92.2, "unit": "%"}, {"measurement": "viability, T/C", "setting": "second compound 0.003 µM, first compound 0.03 µM", "value": 77.3, "unit": "%"}, {"measurement": "viability, T/C", "setting": "second compound 0.003 µM, first compound 0.0949 µM", "value": 55.9, "unit": "%"}, {"measurement": "viability, T/C", "setting": "second compound 0.003 µM, first compound 0.3 µM", "value": 21.1, "unit": "%"}, {"measurement": "viability, T/C", "setting": "second compound 0.003 µM, first compound 0.949 µM", "value": 16.6, "unit": "%"}, {"measurement": "viability, T/C", "setting": "second compound 0.003 µM, first compound 3 µM", "value": 8.99, "unit": "%"}, {"measurement": "viability, T/C", "setting": "second compound 0.00949 µM, first compound 0.00949 µM", "value": 73.1, "unit": "%"}, {"measurement": "viability, T/C", "setting": "second compound 0.00949 µM, first compound 0.03 µM", "value": 74.7, "unit": "%"}, {"measurement": "viability, T/C", "setting": "second compound 0.00949 µM, first compound 0.0949 µM", "value": 41, "unit": "%"}, {"measurement": "viability, T/C", "setting": "second compound 0.00949 µM, first compound 0.3 µM", "value": 16.7, "unit": "%"}, {"measurement": "viability, T/C", "setting": "second compound 0.00949 µM, first compound 0.949 µM", "value": 15.6, "unit": "%"}, {"measurement": "viability, T/C", "setting": "second compound 0.00949 µM, first compound 3 µM", "value": 10.3, "unit": "%"}, {"measurement": "viability, T/C", "setting": "second compound 0.03 µM, first compound 0.00949 µM", "value": 35.9, "unit": "%"}, {"measurement": "viability, T/C", "setting": "second compound 0.03 µM, first compound 0.03 µM", "value": 32.9, "unit": "%"}, {"measurement": "viability, T/C", "setting": "second compound 0.03 µM, first compound 0.0949 µM", "value": 27, "unit": "%"}, {"measurement": "viability, T/C", "setting": "second compound 0.03 µM, first compound 0.3 µM", "value": 14.7, "unit": "%"}, {"measurement": "viability, T/C", "setting": "second compound 0.03 µM, first compound 0.949 µM", "value": 13.4, "unit": "%"}, {"measurement": "viability, T/C", "setting": "second compound 0.03 µM, first compound 3 µM", "value": 9.47, "unit": "%"}, {"measurement": "viability, T/C", "setting": "second compound 0.0949 µM, first compound 0.00949 µM", "value": 12.6, "unit": "%"}, {"measurement": "viability, T/C", "setting": "second compound 0.0949 µM, first compound 0.03 µM", "value": 15, "unit": "%"}, {"measurement": "viability, T/C", "setting": "second compound 0.0949 µM, first compound 0.0949 µM", "value": 11.2, "unit": "%"}, {"measurement": "viability, T/C", "setting": "second compound 0.0949 µM, first compound 0.3 µM", "value": 10.1, "unit": "%"}, {"measurement": "viability, T/C", "setting": "second compound 0.0949 µM, first compound 0.949 µM", "value": 10.3, "unit": "%"}, {"measurement": "viability, T/C", "setting": "second compound 0.0949 µM, first compound 3 µM", "value": 2.13, "unit": "%"}, {"measurement": "viability, T/C", "setting": "second compound 0.3 µM, first compound 0.00949 µM", "value": 4.63, "unit": "%"}, {"measurement": "viability, T/C", "setting": "second compound 0.3 µM, first compound 0.03 µM", "value": 4.83, "unit": "%"}, {"measurement": "viability, T/C", "setting": "second compound 0.3 µM, first compound 0.0949 µM", "value": 4.59, "unit": "%"}, {"measurement": "viability, T/C", "setting": "second compound 0.3 µM, first compound 0.3 µM", "value": 5.23, "unit": "%"}, {"measurement": "viability, T/C", "setting": "second compound 0.3 µM, first compound 0.949 µM", "value": 6.72, "unit": "%"}, {"measurement": "viability, T/C", "setting": "second compound 0.3 µM, first compound 3 µM", "value": 0.97, "unit": "%"}]}
